In US4390613A, “Diffusion transfer photographic system utilizing substituted phenylmercaptoazoles” (Polaroid Corporation, priority 1981, dated 1983):
Read-outs that look alike come from different tables or passages of the source.

How the values were obtained:
[1] = Solubility product of the silver salts (Table II); format: physicochemical; conditions: for Ksp: silver salt
Text: Solubility product measurements were made for the silver salt of phenylmercaptotetrazole (PMT) at pH 13.5 and for the silver salt of compound II at pH 7 and pH 13.5 (above and below the pka of the oxime substituent).

[2] = Solubility of silver salts in presence of excess anion (Table III); format: physicochemical
Method: The solubilities of the silver salts of PMT and compound II in the presence of excess amounts of their anions were measured at pH 7.0 and 13.5. Each solution was 4×10^-3 molar in silver. The results are shown in Table III wherein the solubility data is expressed in μmoles/liter of total silver.

[3] = Ionization and stability in aqueous alkaline processing composition; format: physicochemical
Text: However, it has been shown by experimentation that incorporating compound XI in a film unit according to the invention will provide advantageous results. Thus, it would appear that compound XI undergoes a change in aqueous alkaline processing composition and that the acetyl substituent is a precursor of a group which has the requisite properties described above which provide the desired results. […] It is therefore preferred to incorporate the compound elsewhere in the film unit, for example, in the photosensitive element.

[4] = silver salt, pH 7; Z. C. H. Tan, Photogr. Sci. Eng. 19, 17 (1975); cited from earlier work

CC(=NO)c1ccc(-n2nnnc2S)cc1 [Compound II]
effect of pH / ionization on solubility of the silver salt ([1]; pH 7 vs pH 13.5): increased the solubility of the silver salt of compound II by an order of magnitude | Ksp ([1]; pH 7): ~ 1 × 10^-16 | Ksp ([1]; pH 13.5): 2 × 10^-15 | silver solvent behavior at high pH [2]: weak to moderate silver solvent at high pH

CC(=O)c1ccc(-n2nnnc2S)cc1 [XI]
stability in aqueous alkaline processing composition ([3]; about a week or more in processing composition): long term instability characteristics | ionization of acetyl group to an anion ([3]; aqueous alkaline photographic processing composition): does not ionize to any appreciable extent

Sc1nnnn1-c1ccccc1 [PMT, 1-phenyl-5-mercaptotetrazole, reference compound]
Ksp [4]: 3 × 10^-16 | Ksp ([1]; pH 13.5): 4 × 10^-16 | silver solvent behavior at high pH [2]: PMT is not
